Patent publication US9884868B2, “TGF-beta inhibitors” (Rigel Pharmaceuticals, Inc., priority 2015, dated 2018)
pIC50: −log10 of the molar value.

Target: HIS-TGF-βR1 T204D (Homo sapiens (Human), UniProt P36897, T204D)
Assay: HTRF probe displacement assay with HIS-TGF-βR1 T204D
Details: read-out: TGFbr1 IC50; HTRF probe displacement, 1 nM HIS-TGF-βR1 T204D, 1 hour at room temperature

Sequence of HIS-TGF-βR1 T204D (P36897 34-503 T204D): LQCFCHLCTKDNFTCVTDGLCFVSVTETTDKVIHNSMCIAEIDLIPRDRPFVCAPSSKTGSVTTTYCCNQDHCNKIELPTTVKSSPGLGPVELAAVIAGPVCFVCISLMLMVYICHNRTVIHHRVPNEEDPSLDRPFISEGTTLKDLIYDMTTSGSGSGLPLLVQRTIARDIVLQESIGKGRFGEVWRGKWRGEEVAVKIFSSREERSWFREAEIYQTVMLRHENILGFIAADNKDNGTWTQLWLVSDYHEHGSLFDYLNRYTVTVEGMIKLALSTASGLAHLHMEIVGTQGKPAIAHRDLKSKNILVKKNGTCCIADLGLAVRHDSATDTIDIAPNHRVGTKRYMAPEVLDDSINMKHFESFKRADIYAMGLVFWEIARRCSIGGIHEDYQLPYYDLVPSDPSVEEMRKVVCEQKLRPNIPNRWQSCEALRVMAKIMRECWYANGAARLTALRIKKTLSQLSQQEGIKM

pIC50 | Compound
8.72 | N#Cc1cnc2ccc(-c3c(-c4ccc(F)cc4)ncn3CC3CCCO3)nn12 (stereo not shown) [31′, 6-(4-(4-fluorophenyl)-1-((tetrahydrofuran-2-yl)methyl)-1H-imidazol-5-yl)imidazo[1,2-b]pyridazine-3-carbonitrile]
9.10 | NC(=O)c1cnc2ccc(-c3c(-c4ccc(F)cc4)ncn3CCF)nn12 [111′, 6-(1-(2-fluoroethyl)-4-(4-fluorophenyl)-1H-imidazol-5-yl)imidazo[1,2-b]pyridazine-3-carboxamide]
7.38 | Fc1ccc(-c2ncn(CC(F)F)c2-c2ccc3nccn3c2)cc1F [220′, 6-(1-(2,2-difluoroethyl)-4-(3,4-difluorophenyl)-1H-imidazol-5-yl)imidazo[1,2-a]pyridine]
7.20 | Fc1ccc(-c2ncn(CC(F)F)c2-c2ccc3nccn3c2)cc1 [Example 218′, 6-(1-(2,2-difluoroethyl)-4-(4-fluorophenyl)-1H-imidazol-5-yl)imidazo[1,2-a]pyridine]
9.22 | CCn1cnc(-c2ccc(F)c(Cl)c2)c1-c1ccc2ncc(C(N)=O)n2n1 [117′, 6-(4-(3-chloro-4-fluorophenyl)-1-ethyl-1H-imidazol-5-yl)imidazo[1,2-b]pyridazine-3-carboxamide]
7.03 | OCc1cnc2ccc(-c3c(-c4ccc(F)cc4)ncn3CC(F)F)cn12 [274D′, (6-(1-(2,2-difluoroethyl)-4-(4-fluorophenyl)-1H-imidazol-5-yl)imidazo[1,2-a]pyridin-3-yl)methanol]
7.84 | N#Cc1cnc2ccc(-c3c(-c4cccc(N)c4)ncn3CC(F)F)nn12 [240′, 6-(4-(3-aminophenyl)-1-(2,2-difluoroethyl)-1H-imidazol-5-yl)imidazo[1,2-b]pyridazine-3-carbonitrile]
8.66 | CCC(CO)n1cnc(-c2ccc(F)cc2)c1-c1ccc2ncc(C(N)=O)n2c1 (stereo not shown) [179′, 6-(4-(4-fluorophenyl)-1-(1-hydroxybutan-2-yl)-1H-imidazol-5-yl)imidazo[1,2-a]pyridine-3-carboxamide]
8.96 | CC(CO)n1cnc(-c2ccc(F)cc2)c1-c1ccc2ncc(C(N)=O)n2c1 (stereo not shown) [152′, 6-(4-(4-fluorophenyl)-1-(1-hydroxypropan-2-yl)-1H-imidazol-5-yl)imidazo[1,2-a]pyridine-3-carboxamide]
8.28 | CC(O)Cn1cnc(-c2ccc(F)cc2)c1-c1ccc2ncc(C(N)=O)n2c1 (stereo not shown) [176′, 6-(4-(4-fluorophenyl)-1-(2-hydroxypropyl)-1H-imidazol-5-yl)imidazo[1,2-a]pyridine-3-carboxamide]
7.39 | CCCn1cnc(-c2ccc(F)cc2)c1-c1ccc2ncc(C#N)n2c1 [87′, 6-(4-(4-fluorophenyl)-1-propyl-1H-imidazol-5-yl)imidazo[1,2-a]pyridine-3-carbonitrile]
8.70 | N#Cc1cnc2ccc(-c3c(-c4ccc(F)cc4)ncn3CCCO)nn12 [15′, 6-(4-(4-fluorophenyl)-1-(3-hydroxypropyl)-1H-imidazol-5-yl)imidazo[1,2-b]pyridazine-3-carbonitrile]
8.89 | NC(=O)c1cnc2ccc(-c3c(-c4ccc(F)c(Cl)c4)ncn3CCF)nn12 [114′, 6-(4-(3-chloro-4-fluorophenyl)-1-(2-fluoroethyl)-1H-imidazol-5-yl)imidazo[1,2-b]pyridazine-3-carboxamide]
9.10 | N#Cc1cnc2ccc(-c3c(-c4ccc(F)c(Cl)c4)ncn3CCCF)nn12 [54′, 6-(4-(3-chloro-4-fluorophenyl)-1-(3-fluoropropyl)-1H-imidazol-5-yl)imidazo[1,2-b]pyridazine-3-carbonitrile]
8.96 | CC(O)c1cnc2ccc(-c3c(-c4ccc(F)cc4)ncn3CC(F)F)nn12 (stereo not shown) [Example 214′, 1-(6-(1-(2,2-difluoroethyl)-4-(4-fluorophenyl)-1H-imidazol-5-yl)imidazo[1,2-b]pyridazin-3-yl)ethanol]

Compound | pIC50
N#Cc1cccc(-c2ncn(CC(F)F)c2-c2ccc3ncc(C#N)n3n2)c1 [Example 236] | 8.68
